Entries after “also recorded” stand apart in the source; their conditions may differ.
Experiments:
patients with knee OA [1] = experiment: Clinical trial: WOMAC index scores after a single intra-articular dose in patients with knee OA; format: in vivo, human; details: Day 56; vs placebo; efficacy population (all patients); negative = positive effect of drug
patients with knee OA [2] = experiment: Clinical trial: safety and tolerability of a single intra-articular dose in patients with knee OA; format: in vivo
Protocol: (§1) The objective of this study was to assess in patients with knee OA, the efficacy, safety and tolerability of a single intra-articular dose of Compound A.
(§2) This was a two-center, double-blind, randomized, placebo controlled, single dose study. Following a review of the safety data up to Day 28 from Part 1 of this study, the second part of the study assessed the efficacy of a single dose of Compound A, selected from the maximum administered/tolerated dose from Part 1 (60 mg), in relieving symptoms of patients with knee OA.
(§3) Screening was performed within 28 days of dosing. Following the single dose of study medication administered via intra-articular injection on Day 1, each patient remained at the Study Unit for 4 hours after dosing and, provided there was no difficulty with tolerability, patients were discharged and returned periodically for outpatient visits. Each patient was followed up to Day 168 (end-of-study visit); therefore the study period was 28 weeks.
Safety was assessed by adverse event (AE) monitoring, standard clinical laboratory evaluations, physical examination, vital sign and electrocardiogram (ECG) assessments, local tolerability at site of injection and assessments of the knee joint (effusion/worsening of effusion).
The safety analysis was based on the review of descriptive statistics and individual data for AEs, clinical laboratory, vital signs, and ECG parameters. Adverse events were coded according to the Medical Dictionary for Regulatory Activities (version 15.1) and the numbers of subjects with treatment-emergent AEs (TEAEs) were tabulated (counts and percents). For clinical laboratory, vital signs, and ECG data, the analyses of abnormalities were based on the definitions of potentially clinically significant abnormalities (PCSAs; definitions according to version 2.0 dated 14 Sep. 2009). Local tolerance/tolerability at the site of injection was summarized by descriptive statistics.

patients with knee OA [3] = experiment: Clinical trial: WOMAC index scores after a single intra-articular dose in patients with knee OA; format: in vivo, human; details: for Total WOMAC score, absolute change from baseline, Estimate / WOMAC subscore for Pain, absolute change from baseline, Estimate / WOMAC subscore for Physical function, absolute change from baseline, Estimate / WOMAC subscore for Stiffness, absolute change from baseline, Estimate: 60 mg single intra-articular dose; for Total WOMAC score, Compound A 60 mg vs Placebo, Estimate / WOMAC subscore for Pain, Compound A 60 mg vs Placebo, Estimate / WOMAC subscore for Physical function, Compound A 60 mg vs Placebo, Estimate / WOMAC subscore for Stiffness, Compound A 60 mg vs Placebo, Estimate: difference in change from baseline; for WOMAC subscore for Stiffness, Effect size (90% CI): vs placebo
Protocol: as §1, §2, §3
Compound A was supplied as a lyophilized cake (to be reconstituted in water for injection for intra-articular administration) in vials containing 20, 40 and 80 mg total of active Compound A. The placebo was commercially available 0.9% saline solution for the injection.
The following sub-scales from the WOMAC Index were used to assess the activity of the drug upon pain, stiffness and physical function. Each item will be rated on the basis of the patient's symptoms over the last 48 h, by means of a 5 point Likert Scale: none, mild, moderate, severe, or very severe.
The primary endpoint was the WOMAC Pain sub-scale at Day 56 for evidence of efficacy (change from baseline).
Inclusion criteria are: • Diagnosis of primary knee osteoarthritis, based upon the following: • X-ray or MRI evidence within the last 6 months for joint space narrowing and osteophyte formation—patients will be Kellgren and Lawrence classification II/III, • Total WOMAC score 24-72 and • Fulfilling the American College of Rheumatology Clinical and Radiographic criteria for OA.
Analysis of Efficacy Variables:
Using the primary analysis efficacy population and for WOMAC sub-score for pain on Day 56, treatment mean differences (Compound A minus placebo) in change from baseline and their one-sided 95% upper limit of the confidence interval were computed using linear fixed effects models with fixed terms for treatment group and sex, and with an unstructured R variance/covariance matrix on treatment group for patient within sex blocks, using SAS Proc Mixed®. In case of convergence problems, other variance-covariance structures were explored.
The signs and symptoms of OA were measured with a standard instrument as WOMAC index.
WOMAC index consists of 24 questions in 3 dimensions subscales: • Pain subcale (5 items) • Stiffness subscale (2 items) • Physical function subscale (17 items)
Each item was rated by means of a 5 point Likert scale: none (=0), mild (=1), moderate (=2), severe (=3) and very severe (=4) A total WOMAC score and a WOMAC subscore for each dimension was calculated.
A supportive analysis to the primary analysis was conducted over patients from the efficacy population and with at least one post-dose WOMAC sub-score measurement, using a last observations carried forward (LOCF) approach up to Day 56.
The total WOMAC score and WOMAC sub-score for stiffness and physical function were analysed in the same way as for the primary analysis of WOMAC sub-score for pain.
The treatment mean difference between groups with their one-sided 95% upper limit of the CI was estimated for all other days for all scores. Time profile plots of treatment mean differences with their one-sided 95% upper limit of the CI were provided.
For each WOMAC score (total and sub-scores), the effect size based on the estimated (within the fixed effects model frameworks) mean treatment difference in change from baseline between groups (active versus placebo) were provided at each day with their corresponding 95% CI.

[4] = Day 56, efficacy population (all patients)
[5] = Day 56, patients with effusion at baseline

Structure (SMILES): CNc1nccc(-c2cc3cc(C(=O)N[C@@H](CN(c4ccccc4)c4ncccn4)C(N)=O)ccc3[nH]2)n1 [Compound A, 2-(2-methylamino-pyrimidin-4-yl)-1H-indole-5-carboxylic acid [(S)-1-carbamoyl-2-(phenyl-pyrimidin-2-yl-amino)-ethyl]-amide]
- Total WOMAC score, Effect size (90% CI) (patients with knee OA [1]): 0.06
- WOMAC subscore for Pain, Effect size (90% CI) (patients with knee OA [1]): 0.12
- WOMAC subscore for Physical function, Effect size (90% CI) (patients with knee OA [1]): 0.06
- reported TEAEs and their severity, including local reactions at the injection site, vs placebo (0.9% saline) (patients with knee OA [2]; 60 mg single intra-articular dose): no difference between Compound A and placebo
- tolerability of single doses (patients with knee OA [2]; 60 mg single intra-articular dose, patients with knee OA): well tolerated
- most frequent TEAE (patients with knee OA [2]; after administration of Compound A or placebo, followed by injection site reactions): Arthralgia
- Total WOMAC score, absolute change from baseline, Estimate (patients with knee OA [3]; [4]): −10.5566
- WOMAC subscore for Pain, absolute change from baseline, Estimate (patients with knee OA [3]; [4]): −1.8229
- WOMAC subscore for Physical function, absolute change from baseline, Estimate (patients with knee OA [3]; [4]): −7.7966
- WOMAC subscore for Stiffness, absolute change from baseline, Estimate (patients with knee OA [3]; [4]): −0.9406
- Total WOMAC score, absolute change from baseline, Estimate (patients with knee OA [3]; [5]): −17.0761
- WOMAC subscore for Pain, absolute change from baseline, Estimate (patients with knee OA [3]; [5]): −2.9701
- WOMAC subscore for Physical function, absolute change from baseline, Estimate (patients with knee OA [3]; [5]): −12.9658
- WOMAC subscore for Stiffness, absolute change from baseline, Estimate (patients with knee OA [3]; [5]): −1.1672
- effect sizes for WOMAC subscores (patients with knee OA [3]; Day 56, all patients, negative indicates a positive effect of drug against placebo): 0.12 to −0.04
- Total WOMAC score, Compound A 60 mg vs Placebo, Estimate (patients with knee OA [3]; [4]): 1.0495
- WOMAC subscore for Pain, Compound A 60 mg vs Placebo, Estimate (patients with knee OA [3]; [4]): 0.4554
- WOMAC subscore for Physical function, Compound A 60 mg vs Placebo, Estimate (patients with knee OA [3]; [4]): 0.6854
- WOMAC subscore for Stiffness, Compound A 60 mg vs Placebo, Estimate (patients with knee OA [3]; [4]): −0.0573
- Total WOMAC score, Compound A 60 mg vs Placebo, Estimate (patients with knee OA [3]; [5]): −9.3562
- WOMAC subscore for Pain, Compound A 60 mg vs Placebo, Estimate (patients with knee OA [3]; [5]): −1.7213
- WOMAC subscore for Physical function, Compound A 60 mg vs Placebo, Estimate (patients with knee OA [3]; [5]): −6.8188
- WOMAC subscore for Stiffness, Compound A 60 mg vs Placebo, Estimate (patients with knee OA [3]; [5]): −0.9028
- effect on WOMAC Pain subscores, other WOMAC subscores or Total score (patients with knee OA [3]; Day 56, efficacy population (all patients), 60 mg): neither a clinically significant nor a statistically significant effect
- WOMAC subscore for Stiffness, Effect size (90% CI) (patients with knee OA [3]; Day 56, efficacy population (all patients), negative = positive effect of drug): −0.04
- WOMAC subscore for Stiffness, Effect size (90% CI) (patients with knee OA [3]; [5]): −0.71
- efficacy on pain in patients with knee osteoarthritis and effusion (WOMAC assessment) (patients with knee OA [3]; subgroup of patients with effusion at baseline): significant efficacy; also recorded: significant effect
